Measurements as given in patent US20240115496A1, “A COMPOUND DRY POWDER INHALANT AND USE THEREOF” (TIANJIN UNIVERSITY OF TRADITIONAL CHINESE MEDICINE, priority 2021, published 2024).

Legend:
[1] = Particle size distribution test, laser particle size analyzer, dry dispersion; assay type: physicochemical
Protocol: The particle size distribution of DPI dry powder was measured by dry dispersion method using laser particle size analyzer, and Dv10, Dv50, Dv90, VMD (Volume median diameter) and SMD (Sauter mean diameter) were determined, respectively.

[2] = system: rats having Bleo-induced pulmonary fibrosis; assay: Body weight changes in rats; assay type: in vivo, rat; settings: days 1-28, compared with Bleo group
Protocol: (§1) 48 SPF healthy SD male rats (weight of 180-220 g) were randomly divided into 8 groups, 6 rats for each group: (1) normal group (control group): normal rearing in the animal center; (2) sham group: this group was given the same dose of air by pulmonary administration; (3) Bleo model group: 100 μL of Bleo solution with a concentration of 12.5 mg/mL was administered through the tracheal intubation, and the rats were rotated for 5 min after drug administration for use, referred to as the Bleo group or the model group in the present application; (4) Bleo+BA-DPI group: the same modeling method as the Bleo model group was used, and BA-DPI was administered through the tracheal intubation via DP-4 rat dry powder lung drug delivery device (manufacturer: Beijing YSKD Biotechnology Co.) at a dose of 9 mg/kg, 3 mg per day for 28 days; (5) Bleo+AH-DPI group (same method as 4); (6) Bleo+BA/AH-DPI group (same method as 4); (7) Bleo+tail intravenous injection group: the formulation solution was administered by tail intravenous injection at a concentration of 3 mg/ml, 9 mg/kg, for a total of 28 days, starting from the second day after the modeling; (8) Bleo+pirfenidone group: 2 ml per day at a concentration of 11.6 mg/ml was administered by gavage starting from the second day after successful modeling for 28 days. […]

[3] = system: rats having Bleo-induced pulmonary fibrosis; assay: Pulmonary function index assay (EMKA pulmonary function detector); assay type: in vivo, rat; settings: day 28, DPI intratracheal or tail i.v. 9 mg/kg, pirfenidone gavage, daily 28 days
Protocol: 48 SPF healthy SD male rats (weight of 180-220 g) were randomly divided into 8 groups, 6 rats for each group: (1) normal group (control group): normal rearing in the animal center; (2) sham group: this group was given the same dose of air by pulmonary administration; (3) Bleo model group: 100 μL of Bleo solution with a concentration of 12.5 mg/mL was administered through the tracheal intubation, and the rats were rotated for 5 min after drug administration for use, referred to as the Bleo group or the model group in the present application; (4) Bleo+BA-DPI group: the same modeling method as the Bleo model group was used, and BA-DPI was administered through the tracheal intubation via DP-4 rat dry powder lung drug delivery device (manufacturer: Beijing YSKD Biotechnology Co.) at a dose of 9 mg/kg, 3 mg per day for 28 days; (5) Bleo+AH-DPI group (same method as 4); (6) Bleo+BA/AH-DPI group (same method as 4); (7) Bleo+tail intravenous injection group: the formulation solution was administered by tail intravenous injection at a concentration of 3 mg/ml, 9 mg/kg, for a total of 28 days, starting from the second day after the modeling; (8) Bleo+pirfenidone group: 2 ml per day at a concentration of 11.6 mg/ml was administered by gavage starting from the second day after successful modeling for 28 days.
Lung DPI dry powder administration operation: DPI powder was weighed precisely and placed in the storage room of the drug delivery device, the DP4 dry powder delivery device was installed, connected to the syringe with 1.5-2 ml of air, the rat was laid on the tracheal intubation platform after anesthesia, the rat laryngoscope was used to expose the tracheal opening, when the tracheal opening was open, the nozzle of the drug delivery device was immediately inserted through the tracheal opening to the bronchial fork, and the air was immediately pushed into the drug delivery device to push DPI fine powder into the rat's lung. The rat in sham group was pushed with 1.5-2 ml of air (not including the drug) as described above.
Various respiratory indices, including inspiratory duration (Ti), expiratory duration (Te), maximal inspiratory flow (PIF), maximal expiratory flow (PEF), tidal volume (TV), relaxation time (RT), and expiratory volume (EV), in freely moving rats were measured by EMKA pulmonary function detector at the completion of modeling on day 28.

[4] = system: rats having Bleo-induced pulmonary fibrosis; assay: Determination of lung factor in rats; assay type: in vivo, rat; settings: Bleo rats after 28 days of treatment, n = 6; Bleo group 9.45, normal 4.09
Protocol: as §1

[5] = system: rats having Bleo-induced pulmonary fibrosis; assay: HE staining of rat lung tissue; assay type: in vivo; settings: Bleo rats after 28 days, compared with Bleo model group
Protocol: as §1

[6] = system: rats having Bleo-induced pulmonary fibrosis; assay: Total protein in bronchoalveolar lavage fluid (BALF), colorimetric; assay type: in vivo, rat; settings: Bleo rats after 28 days of treatment, n = 6; Bleo group 17.04, normal 7.86
Protocol: as §1

[7] = system: inflammatory factors IL-4, IL-6, IL-8, and IL-1β in BALF; assay: Inflammatory factors in BALF by ELISA; assay type: in vivo, rat; settings: Bleo rats after 28 days, compared with Bleo group
Protocol: as §1
In order to verity whether BA/AH-DPI can regulate the inflammatory process by modulating the secretion of cytokines, the application also measured the concentrations of inflammatory factors IL-4, IL-6, IL-8, and IL-1β in BALF to determine the protective and therapeutic effects of BA/AH-DPI in the pathogenesis of Bleo-induced idiopathic pulmonary fibrosis.
The above BALF supernatant was measured by enzyme-linked immunosorbent assay (ELISA) to detect the concentration levels of inflammatory factors IL-4, IL-6, IL-8, IL-1β, as well as IFN-γ and TGF-β1. […]

[8] = system: rats having Bleo-induced pulmonary fibrosis; assay: Hydroxyproline (Hyp) in lung tissue homogenates by ELISA; assay type: in vivo, rat; settings: Bleo rats after 28 days of treatment; Bleo group 118.33, normal 76.43
Protocol: as §1

[9] = system: SOD, MDA, LDH in rat lung tissue; assay: Oxidative stress indicators (SOD, MDA, LDH) in lung tissue homogenates; assay type: in vivo; settings: Bleo rats after 28 days, compared with Bleo group
Protocol: as §1
Oxidative stress played an important role in the process of Bleo-induced pulmonary fibrosis. […] Therefore, in the application, SOD was measured in conjunction with MDA in order to observe the role in pulmonary fibrosis. […]

MPO = assay: Myeloperoxidase (MPO) level in serum; assay type: in vivo, rat; settings: Bleo rats after 28 days, compared with Bleo group
Protocol: as §1

CC(C)C[C@H](N)C(=O)O [L-leu, L-leucine]
D10 [1]: 9.39 μm | D50 [1]: 50.97 μm | D90 [1]: 84.70 μm | SMD (Sauter mean diameter) [1]: 16.64 μm | VMD (Volume median diameter) [1]: 49.54 μm | <3 μm ([1]; fraction of particles): 3.80% | <5 μm ([1]; fraction of particles): 6.08%

Cc1ccc(=O)n(-c2ccccc2)c1 [pirfenidone, Pirfenidone]
Body weight of rats [2]: significantly different from that in the Bleo group from day 14 | EV (expiratory volume) [3]: 1.23 ± 0.30 mL | PEF (maximal expiratory flow) [3]: 10.76 ± 5.93 mL/s | PIF (maximal inspiratory flow) [3]: 12.52 ± 4.68 mL/s | RT (relaxation time) [3]: 158.82 ± 63.19 ms | TV (tidal volume) [3]: 1.22 ± 0.30 mL | Te (expiratory duration) [3]: 265.48 ± 99.45 ms | Ti (inspiratory duration) [3]: 180.56 ± 49.34 ms | Lung factor [4]: 6.15 ± 0.84 | Histopathology of lung tissue (HE staining) [5]: less fibrotic features and inflammatory infiltration | Total protein concentration in BALF [6]: 10.59 ± 1.47 mg/mL | IL-1β level in BALF [7]: significantly lower | IL-4 level in BALF [7]: significantly lower | IL-8 level in BALF [7]: significantly lower | Hyp content in lung tissue [8]: 83.40 pg/mL | LDH content in lung tissue [9]: significantly decreased | MDA level in lung tissue [9]: significantly decreased | SOD antioxidant index in lung tissue [9]: significantly increased | MPO activity in serum (MPO): significantly inhibited MPO activity
